One experiment has as its target ROCK-II (h) (Homo sapiens, UniProt O75116). Put plainly: ROCK-II (h) radiometric kinase assay. It is filed as biochemical. As to conditions: read-out: IC50 anti-ROCK-II activity. Here is the method: In a final reaction volume of 25 μl, ROCK-II (h) (5-10 mU) is incubated with 50 mM Tris pH 7.5, 0.1 mM EGTA, 30 μM […], 10 mM MgAcetate and [γ-^33P-ATP] (specific activity approx. 500 cpm/pmol, concentration as required). The reaction is initiated by the addition of the MgATP mix. After incubation for 40 minutes at room temperature, the reaction is stopped by the addition of 5 μl of a 3% phosphoric acid solution. 10 μl of the reaction is then spotted onto a P30 filtermat and washed three times for 5 minutes in 75 mM phosphoric acid and once in methanol prior to drying and scintillation counting.
The compound of example 29 was tested for anti-ROCK-II activity (assay as described above): […]

Another experiment concerns rat MM1 hepatoma cells. As to conditions: cited from earlier work.
The next experiment deals with MM1 cells. Particulars: continuous delivery using osmotic pumps, syngeneic rats; cited from earlier work.
Experiment [1] concerns isolated rabbit urinary bladder smooth muscle. Particulars: cited from earlier work.

Molecules are shown by their SMILES.

Chain of ROCK-II (h) (O75116 whole entry): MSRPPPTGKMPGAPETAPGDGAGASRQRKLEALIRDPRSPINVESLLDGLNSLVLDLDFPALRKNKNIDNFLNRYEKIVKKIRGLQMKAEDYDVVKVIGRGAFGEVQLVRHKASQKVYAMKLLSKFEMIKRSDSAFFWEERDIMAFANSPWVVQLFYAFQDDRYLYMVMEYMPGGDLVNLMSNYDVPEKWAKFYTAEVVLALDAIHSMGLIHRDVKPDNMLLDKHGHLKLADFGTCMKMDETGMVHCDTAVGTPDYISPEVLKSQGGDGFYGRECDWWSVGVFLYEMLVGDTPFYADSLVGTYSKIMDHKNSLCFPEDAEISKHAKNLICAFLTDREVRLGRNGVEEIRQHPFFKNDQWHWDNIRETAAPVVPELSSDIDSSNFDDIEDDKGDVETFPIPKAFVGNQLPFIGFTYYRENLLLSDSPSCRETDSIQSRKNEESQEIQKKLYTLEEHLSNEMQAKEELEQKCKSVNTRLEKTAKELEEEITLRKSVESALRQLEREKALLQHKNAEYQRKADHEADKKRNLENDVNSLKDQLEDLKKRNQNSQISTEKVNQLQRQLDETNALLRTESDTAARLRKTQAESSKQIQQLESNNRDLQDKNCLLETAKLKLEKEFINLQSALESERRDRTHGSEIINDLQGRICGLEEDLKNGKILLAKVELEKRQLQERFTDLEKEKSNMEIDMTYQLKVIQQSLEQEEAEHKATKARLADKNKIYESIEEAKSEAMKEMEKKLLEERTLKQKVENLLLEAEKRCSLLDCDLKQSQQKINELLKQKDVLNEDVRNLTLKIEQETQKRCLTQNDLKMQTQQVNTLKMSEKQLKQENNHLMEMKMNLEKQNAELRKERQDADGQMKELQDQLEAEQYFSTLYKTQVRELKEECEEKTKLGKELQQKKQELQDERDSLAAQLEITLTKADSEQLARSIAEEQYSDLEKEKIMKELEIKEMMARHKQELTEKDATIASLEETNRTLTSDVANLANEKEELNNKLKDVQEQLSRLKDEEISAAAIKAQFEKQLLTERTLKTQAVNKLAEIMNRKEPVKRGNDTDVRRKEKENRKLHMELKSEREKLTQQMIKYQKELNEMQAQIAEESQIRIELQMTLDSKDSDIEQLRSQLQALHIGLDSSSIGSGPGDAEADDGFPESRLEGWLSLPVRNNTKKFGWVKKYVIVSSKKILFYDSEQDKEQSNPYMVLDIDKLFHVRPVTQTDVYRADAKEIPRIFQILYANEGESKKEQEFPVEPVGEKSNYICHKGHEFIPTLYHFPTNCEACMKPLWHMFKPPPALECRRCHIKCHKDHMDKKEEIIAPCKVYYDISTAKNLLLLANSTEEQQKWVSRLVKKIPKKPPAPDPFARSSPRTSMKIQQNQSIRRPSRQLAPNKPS

By IC50 is commonly meant the midpoint of a concentration-inhibition curve. For the molecule `NC(c1ccc(Cl)cc1)C1CCN(c2ccnc3[nH]ccc23)CC1` (centres unmarked) [Example 29, C-(4-Chlorophenyl)-C-[1-(1H-pyrrolo[2,3-b]pyridin-4-yl)piperidin-4-yl]methylamine], the IC50 at ROCK-II (h) was less than 100 nM.
Consider `C[C@@H](N)[C@H]1CC[C@H](C(=O)Nc2ccncc2)CC1` [Example Y-27632], for which, in the experiment with rat MM1 hepatoma cells, the “Rho-mediated activation of actomyosin” value is “blocked” and the invasive activity result was “blocked”. Moreover, the “dissemination of MM1 cells” value in the experiment on MM1 cells is “considerably reduced”. The bethanechol-evoked contractions result in experiment [1] is reported as “attenuates”.

These data come from US20090253718A1, “Pharmaceutical Compounds” (Astex Therapeutics Limited, priority 2006, published 2009).
